Laboratory results published in patent US9371353B2, “Oligonucleotide with protected base” (Ajinomoto Co., Inc., priority 2012, dated 2016).

Assay: Solubility test of nucleoside with protected 3′-hydroxyl group
Format: physicochemical
Procedure: The solubility (=solute/(solvent+solute)×100) (mass %) at 20° C., shown in the following Table 2, of the compound representing the present invention, thymidine wherein the 5′-hydroxyl group is protected by dimethoxytrityl group, and the 3′-hydroxyl group is protected by the branched chain-containing aromatic protecting group (Example 2), and thymidine wherein the 5′-hydroxyl group is protected by dimethoxytrityl group, and the 3′-hydroxyl group is protected by the corresponding group containing the straight chain structure (Comparative Example 2) as a comparison target thereof was measured.
[Solubility Measurement Method]
• 1) A solute (100 parts by mass) was added to a solvent (100 parts by mass) to saturation at 20° C. • 2) When the solute remained by visual observation, the supernatant was quantitatively analyzed under the following HPLC conditions, and the concentration was determined and taken as the solubility (=solute/(solvent+solute)×100)(mass %). • 3) When the solute was absent by visual observation, the solubility was >50 mass %. • [HPLC Analysis Conditions] • use instrument: Hitachi high performance liquid chromatography LaChrom Elite L-2000 series • column: YMC-PACK 5 μm 150×4.6 mm • column temperature: 40° C. • eluent: THF/CH3CN/H2O • flow rate: 1.0 ml/min

[1] = heptane/toluene/acetonitrile = 1/1/1, 20° C.

SMILES | solubility (=solute/(solvent+solute)×100) (heptane, 20° C.) | solubility (=solute/(solvent+solute)×100) (heptane/toluene = 1/1, 20° C.) | solubility (=solute/(solvent+solute)×100) [1]
CCCCCCCCCCCCCCCCCCOc1cc(CNC(=O)CCC(=O)OC2CC(n3cc(C)c(=O)[nH]c3=O)OC2COC(c2ccccc2)(c2ccc(OC)cc2)c2ccc(OC)cc2)cc(OCCCCCCCCCCCCCCCCCC)c1OCCCCCCCCCCCCCCCCCC (stereo not drawn) [Comparative Example 2, 5′-O-(4,4′-dimethoxytrityl)-2′-deoxythymidin-3′-yl-N-(3,4,5-tris(octadecyloxy)benzyl)succinamate] | 0% by mass | 22.3% by mass | 13.7% by mass
COc1ccc(C(OCC2OC(n3cc(C)c(=O)[nH]c3=O)C[C@H]2OC(=O)CCC(=O)NCc2cc(OCCC(C)CCCC(C)CCCC(C)CCCC(C)C)c(OCCC(C)CCCC(C)CCCC(C)CCCC(C)C)c(OCCC(C)CCCC(C)CCCC(C)CCCC(C)C)c2)(c2ccccc2)c2ccc(OC)cc2)cc1 (stereo partly drawn) [Example 2, 5′-O-(4,4′-dimethoxytrityl)-2′-deoxythymidin-3′-yl-N-[3,4,5-tris(3,7,11,15-tetramethyl-1-hexadecanyloxy)benzyl]succinamate] | >50% by mass | >50% by mass | >50% by mass
